Among the targets are CLK4 (Homo sapiens, UniProt Q9HAZ1); CSNK1G2 (Homo sapiens, UniProt P78368); CSNK2A1 (Homo sapiens, UniProt P68400); FGFR1 (Homo sapiens, UniProt P11362); FYN (Homo sapiens, UniProt P06241); HUNK (Homo sapiens, UniProt P57058); PDGFRB (Homo sapiens, UniProt P09619); PIK3CD (Homo sapiens, UniProt O00329); PKMYT1 (Homo sapiens, UniProt Q99640); PRKCQ (Homo sapiens, UniProt Q04759); RET(M918T) (Homo sapiens, UniProt P07949, M918T); RIPK2 (Homo sapiens, UniProt O43353); TIE1 (Homo sapiens, UniProt P35590); TNK1 (Homo sapiens, UniProt Q13470).

Common to all, as to experiment: biochemical
Common to all, as to parameters: DiscoverX kinase panel, active-site competition binding (KINOMEscan type), percent of control at one concentration
Common to all, as to conditions: competition binding, percent of control

Another test concerns the target T1, BRK (Homo sapiens, UniProt Q13882).
T1 construct: gene PTK6

The target of the next test is T2, DMPK2 (Homo sapiens, UniProt Q6DT37).
T2 construct: gene CDC42BPG

A further test addresses T3, PAK7 (Homo sapiens, UniProt Q9P286).
T3 construct: gene PAK5

Test [1] has as its target T4, RSK4(Kin.Dom.2-C-terminal) (Homo sapiens, UniProt Q9UK32).
T4 construct: gene RPS6KA6; Kin.Dom.2-C-terminal

Another test has as its target T5, YES (Homo sapiens, UniProt P07947).
T5 construct: gene YES1

The next test deals with T6, p38-alpha (Homo sapiens, UniProt Q16539).
T6 construct: gene MAPK14

Another test addresses T7, p38-beta (Homo sapiens, UniProt Q15759).
T7 construct: gene MAPK11

Structures are written as SMILES.

Chain of CSNK1G2 (P78368 whole entry): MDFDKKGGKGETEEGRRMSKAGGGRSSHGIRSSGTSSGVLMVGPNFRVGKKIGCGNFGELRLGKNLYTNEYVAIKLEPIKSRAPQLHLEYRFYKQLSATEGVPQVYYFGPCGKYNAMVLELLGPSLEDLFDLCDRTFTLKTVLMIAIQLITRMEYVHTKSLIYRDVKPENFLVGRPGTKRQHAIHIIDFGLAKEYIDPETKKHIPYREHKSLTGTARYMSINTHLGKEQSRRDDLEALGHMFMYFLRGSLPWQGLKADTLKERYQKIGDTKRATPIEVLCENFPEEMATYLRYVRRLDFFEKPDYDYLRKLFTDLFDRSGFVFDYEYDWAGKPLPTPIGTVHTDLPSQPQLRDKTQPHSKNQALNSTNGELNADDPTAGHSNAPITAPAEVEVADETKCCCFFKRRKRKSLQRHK
Chain of HUNK (P57058 whole entry): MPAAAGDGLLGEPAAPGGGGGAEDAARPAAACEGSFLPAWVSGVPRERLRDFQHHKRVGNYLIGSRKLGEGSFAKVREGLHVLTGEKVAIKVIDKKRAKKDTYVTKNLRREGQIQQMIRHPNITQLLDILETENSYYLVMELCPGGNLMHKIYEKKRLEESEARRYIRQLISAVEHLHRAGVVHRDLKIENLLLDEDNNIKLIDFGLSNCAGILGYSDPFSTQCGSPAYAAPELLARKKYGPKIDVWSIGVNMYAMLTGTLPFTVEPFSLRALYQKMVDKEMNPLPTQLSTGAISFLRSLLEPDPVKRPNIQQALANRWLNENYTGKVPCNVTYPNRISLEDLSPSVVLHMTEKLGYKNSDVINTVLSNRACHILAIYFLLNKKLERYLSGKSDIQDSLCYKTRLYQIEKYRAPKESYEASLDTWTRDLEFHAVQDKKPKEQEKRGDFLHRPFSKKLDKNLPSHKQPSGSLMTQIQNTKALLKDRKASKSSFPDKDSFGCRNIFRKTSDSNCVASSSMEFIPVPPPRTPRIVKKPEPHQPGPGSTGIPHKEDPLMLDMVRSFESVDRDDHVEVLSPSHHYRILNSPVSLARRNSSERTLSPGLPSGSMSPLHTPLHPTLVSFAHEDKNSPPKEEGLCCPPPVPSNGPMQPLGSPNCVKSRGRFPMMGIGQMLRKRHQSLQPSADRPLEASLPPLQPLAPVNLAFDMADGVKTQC
Chain of RIPK2 (O43353 whole entry): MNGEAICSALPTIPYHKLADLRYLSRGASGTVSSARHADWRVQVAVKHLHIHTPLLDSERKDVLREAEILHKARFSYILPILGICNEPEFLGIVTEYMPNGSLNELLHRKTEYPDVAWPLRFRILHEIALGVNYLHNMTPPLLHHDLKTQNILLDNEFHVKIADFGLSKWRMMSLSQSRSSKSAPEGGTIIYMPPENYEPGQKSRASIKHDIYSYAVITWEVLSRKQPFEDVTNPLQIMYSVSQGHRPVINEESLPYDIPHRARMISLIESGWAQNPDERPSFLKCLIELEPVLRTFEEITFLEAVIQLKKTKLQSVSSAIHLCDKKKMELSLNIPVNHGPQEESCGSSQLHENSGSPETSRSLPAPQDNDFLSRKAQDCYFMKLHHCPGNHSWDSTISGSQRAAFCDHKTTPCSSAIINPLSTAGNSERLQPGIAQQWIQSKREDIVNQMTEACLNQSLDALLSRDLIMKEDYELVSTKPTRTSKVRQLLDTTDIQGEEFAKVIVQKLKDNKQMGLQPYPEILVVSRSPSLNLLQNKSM
T3 sequence (Q9P286 whole entry): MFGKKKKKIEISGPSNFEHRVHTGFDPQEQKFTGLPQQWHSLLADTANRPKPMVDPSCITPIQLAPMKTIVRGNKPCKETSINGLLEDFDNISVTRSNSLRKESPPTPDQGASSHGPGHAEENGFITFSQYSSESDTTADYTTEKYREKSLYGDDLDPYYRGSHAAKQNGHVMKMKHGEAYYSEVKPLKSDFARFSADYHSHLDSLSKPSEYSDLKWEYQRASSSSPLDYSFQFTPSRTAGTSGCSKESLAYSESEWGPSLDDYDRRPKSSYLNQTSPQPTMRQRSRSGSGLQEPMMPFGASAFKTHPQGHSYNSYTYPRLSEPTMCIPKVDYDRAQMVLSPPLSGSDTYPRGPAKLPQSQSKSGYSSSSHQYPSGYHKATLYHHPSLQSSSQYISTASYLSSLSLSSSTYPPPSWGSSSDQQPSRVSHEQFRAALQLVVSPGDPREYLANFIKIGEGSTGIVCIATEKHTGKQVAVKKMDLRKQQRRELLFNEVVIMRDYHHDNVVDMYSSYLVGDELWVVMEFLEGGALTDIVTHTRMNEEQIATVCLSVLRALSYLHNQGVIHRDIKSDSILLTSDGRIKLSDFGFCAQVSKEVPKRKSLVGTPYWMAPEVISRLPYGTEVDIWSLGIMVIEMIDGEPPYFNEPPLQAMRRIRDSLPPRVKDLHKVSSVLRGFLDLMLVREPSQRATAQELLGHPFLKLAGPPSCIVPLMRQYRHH
Chain of RET(M918T) (P07949 whole entry M918T): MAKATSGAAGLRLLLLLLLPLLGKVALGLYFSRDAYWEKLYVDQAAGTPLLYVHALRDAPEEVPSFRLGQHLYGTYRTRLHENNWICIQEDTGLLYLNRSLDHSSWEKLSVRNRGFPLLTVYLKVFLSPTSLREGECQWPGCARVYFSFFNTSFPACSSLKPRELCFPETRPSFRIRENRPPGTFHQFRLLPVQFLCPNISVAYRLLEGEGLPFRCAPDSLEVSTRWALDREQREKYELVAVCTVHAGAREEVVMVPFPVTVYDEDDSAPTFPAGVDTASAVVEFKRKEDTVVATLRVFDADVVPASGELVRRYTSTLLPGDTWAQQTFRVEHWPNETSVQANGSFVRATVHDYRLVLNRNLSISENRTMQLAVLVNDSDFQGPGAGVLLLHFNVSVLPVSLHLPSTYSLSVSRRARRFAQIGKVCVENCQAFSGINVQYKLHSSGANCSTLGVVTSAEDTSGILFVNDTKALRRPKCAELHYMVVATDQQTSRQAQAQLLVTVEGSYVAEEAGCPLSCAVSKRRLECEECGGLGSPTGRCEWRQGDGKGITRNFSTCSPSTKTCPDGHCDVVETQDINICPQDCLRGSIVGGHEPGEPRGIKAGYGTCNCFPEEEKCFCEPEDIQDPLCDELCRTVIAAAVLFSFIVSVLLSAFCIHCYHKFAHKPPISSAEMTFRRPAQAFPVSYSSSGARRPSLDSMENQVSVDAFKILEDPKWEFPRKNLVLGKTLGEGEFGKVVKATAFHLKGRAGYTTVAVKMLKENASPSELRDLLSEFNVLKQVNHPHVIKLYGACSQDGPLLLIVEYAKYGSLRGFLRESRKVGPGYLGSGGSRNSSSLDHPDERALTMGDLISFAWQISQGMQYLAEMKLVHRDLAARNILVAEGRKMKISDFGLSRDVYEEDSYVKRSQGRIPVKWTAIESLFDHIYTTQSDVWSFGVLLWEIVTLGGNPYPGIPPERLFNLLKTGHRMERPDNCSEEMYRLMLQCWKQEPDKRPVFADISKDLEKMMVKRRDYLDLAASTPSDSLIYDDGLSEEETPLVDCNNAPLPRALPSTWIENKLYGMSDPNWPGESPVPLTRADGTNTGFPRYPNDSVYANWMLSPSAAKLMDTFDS
Chain of PKMYT1 (Q99640 whole entry): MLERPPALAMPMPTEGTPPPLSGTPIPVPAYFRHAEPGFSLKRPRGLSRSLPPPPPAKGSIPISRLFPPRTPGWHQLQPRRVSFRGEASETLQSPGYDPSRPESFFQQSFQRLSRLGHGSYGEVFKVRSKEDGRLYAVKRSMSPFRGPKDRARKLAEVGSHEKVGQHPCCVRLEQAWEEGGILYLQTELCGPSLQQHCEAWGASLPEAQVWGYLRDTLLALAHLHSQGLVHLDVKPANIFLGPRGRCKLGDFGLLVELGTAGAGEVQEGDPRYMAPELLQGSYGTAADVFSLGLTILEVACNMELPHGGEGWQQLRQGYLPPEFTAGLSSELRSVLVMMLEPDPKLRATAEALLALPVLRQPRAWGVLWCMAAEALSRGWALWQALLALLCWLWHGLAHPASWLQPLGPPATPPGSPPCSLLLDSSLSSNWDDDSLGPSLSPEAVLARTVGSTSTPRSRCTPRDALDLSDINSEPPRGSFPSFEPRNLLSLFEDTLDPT
T1 sequence (Q13882 whole entry): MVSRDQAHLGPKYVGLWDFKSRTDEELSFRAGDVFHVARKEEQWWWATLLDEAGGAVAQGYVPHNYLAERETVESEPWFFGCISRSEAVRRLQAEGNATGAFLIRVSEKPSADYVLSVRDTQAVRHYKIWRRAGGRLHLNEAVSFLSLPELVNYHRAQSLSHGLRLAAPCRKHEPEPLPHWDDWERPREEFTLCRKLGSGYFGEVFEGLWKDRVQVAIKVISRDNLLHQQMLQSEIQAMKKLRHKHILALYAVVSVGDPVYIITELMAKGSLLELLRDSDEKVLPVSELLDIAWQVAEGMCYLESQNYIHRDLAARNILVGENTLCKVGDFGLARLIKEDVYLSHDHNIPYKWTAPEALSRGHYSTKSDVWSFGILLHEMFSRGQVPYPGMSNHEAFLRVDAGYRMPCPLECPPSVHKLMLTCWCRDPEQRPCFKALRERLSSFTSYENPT
Chain of FYN (P06241 whole entry): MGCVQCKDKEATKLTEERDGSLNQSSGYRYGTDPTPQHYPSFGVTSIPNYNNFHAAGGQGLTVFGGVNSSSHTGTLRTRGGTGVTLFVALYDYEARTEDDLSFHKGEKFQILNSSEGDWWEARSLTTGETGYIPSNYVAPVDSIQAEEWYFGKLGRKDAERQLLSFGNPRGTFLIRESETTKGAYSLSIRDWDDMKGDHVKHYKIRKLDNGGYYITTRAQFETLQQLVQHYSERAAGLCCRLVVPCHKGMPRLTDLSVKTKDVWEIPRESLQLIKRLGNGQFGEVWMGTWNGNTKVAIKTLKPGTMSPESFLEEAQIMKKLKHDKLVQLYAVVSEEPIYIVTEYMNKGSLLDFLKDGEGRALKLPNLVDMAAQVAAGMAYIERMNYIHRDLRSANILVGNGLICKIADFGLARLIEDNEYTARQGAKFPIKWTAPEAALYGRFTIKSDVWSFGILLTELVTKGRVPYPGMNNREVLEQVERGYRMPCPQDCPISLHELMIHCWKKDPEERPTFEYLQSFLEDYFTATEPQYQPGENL

As to `COc1cc2c(cn1)N(C)C(=O)[C@@H](NC(=O)c1nc3n(n1)[C@H](c1ccccc1)CC3)CC2` [GNE684, (S)-N-((S)-7-methoxy-1-methyl-2-oxo-2,3,4,5-tetrahydro-1H-pyrido[3,4-b]azepin-3-yl)-5-phenyl-6,7-dihydro-5H-pyrrolo[1,2-b][1,2,4]triazole-2-carboxamide], the remaining binding at 10 µM at BRK stood at 100%; at CLK4, 95%; at CSNK1G2 it was 90%; on CSNK2A1 it was 93%; on DMPK2, 100%; on FGFR1 it was 92%. For the same compound, the remaining binding at 10 µM on FYN was determined as 100%; at HUNK it was 94%; on PAK7, 90%; at PDGFRB, 94%; on PIK3CD, 78%; at PKMYT1, 99%. Further, the remaining binding at 10 µM on PRKCQ came to 100%; at RET(M918T), 89%; on RIPK2, 100%; in test [1] it was 95%; on TIE1, 88%; on TNK1 it was 100%. Also, the remaining binding at 10 µM amounted to 95% at YES, 95% on p38-alpha and 97% on p38-beta.

(Values after PMC7206119, “RIP1 inhibition blocks inflammatory diseases but not tumor growth or metastases” (Cell Death and Differentiation, 2019).)
